Biological target: sigma-2 receptors (Homo sapiens, UniProt Q5BJF2)
Assay: Radiolabel Binding Studies for the Sigma-2 Receptor (3H-DTG competition)
Settings: 3H-DTG radioligand; membrane fractions of cells expressing recombinant sigma-2 receptors
Experimental: A solution of the compound of the disclosure to be tested is prepared as a 1-mg/ml stock in Assay Buffer or DMSO according to its solubility. A similar stock of the reference compound Haloperidol is also prepared as a positive control. Eleven dilutions (5× assay concentration) of the compound of the disclosure and Haloperidol are prepared in the Assay Buffer by serial dilution to yield final corresponding assay concentrations ranging from 10 pM to 10 μM.
A stock concentration of 5 nM ^3H-1,3-di-(2-tolyl)guanidine (^3H-DTG) is prepared in 50 mM Tris-HCl, 10 mM MgCl2, 1 mM EDTA, pH 7.4 (Assay Buffer). Aliquots (50 μl) of radioligand are dispensed into the wells of a 96-well plate containing 100 μl of Assay Buffer. Duplicate 50 μl aliquots of the compound of the disclosure test and Haloperidol positive control reference compound serial dilutions are added.
Membrane fractions of cells expressing recombinant sigma-2 receptors (50 μL) are dispensed into each well. The membranes are prepared from stably tranfected cell lines expressing sigma-2 receptors cultured on 10-cm plates by harvesting PBS-rinsed monolayers, resuspending and lysing in chilled, hypotonic 50 mM Tris-HCl, pH 7.4, centrifuging at 20,000×g, decanting the supernatant and storing at −80° C.; the membrane preparations are resuspended in 3 ml of chilled Assay Buffer and homogenized by several passages through a 26 gauge needle before using in the assay.
The 250-μl reactions are incubated at room temperature for 1.5 hours, then harvested by rapid filtration onto 0.3% polyethyleneimine-treated, 96-well filter mats using a 96-well Filtermate harvester. Four rapid 500-μl washes are performed with chilled Assay Buffer to reduce non-specific binding. The filter mats are dried, then scintillant is added to the filters and the radioactivity retained on the filters is counted in a Microbeta scintillation counter.
Raw data (dpm) representing total radioligand binding (i.e., specific+non-specific binding) are plotted as a function of the logarithm of the molar concentration of the competitor (i.e., test or reference compound). Non-linear regression of the normalized (i.e., percent radioligand binding compared to that observed in the absence of test or reference compound) raw data is performed in Prism 4.0 (GraphPad Software) using the built-in three parameter logistic model describing ligand competition binding to radioligand-labeled sites:
[formula] • where bottom equals the residual radioligand binding measured in the presence of 10 μM reference compound (i.e., non-specific binding) and top equals the total radioligand binding observed in the absence of competitor. The log IC50 (i.e., the log of the ligand concentration that reduces radioligand binding by 50%) is thus estimated from the data and used to obtain the Ki by applying the Cheng-Prusoff approximation:
[formula] • where [ligand] equals the assay radioligand concentration and KD equals the affinity constant of the radioligand for the target receptor.

Chain of sigma-2 receptors (Q5BJF2 whole entry, looked up): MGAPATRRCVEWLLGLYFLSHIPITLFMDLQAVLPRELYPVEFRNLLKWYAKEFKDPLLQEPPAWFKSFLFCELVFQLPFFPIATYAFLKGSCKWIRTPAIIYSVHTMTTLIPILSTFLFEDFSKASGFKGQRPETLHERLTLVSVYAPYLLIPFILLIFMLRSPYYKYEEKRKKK

Compared with `CCC1(CC)CC(CCN2CC3CN(c4ccccc4)CC3C2)OC1=O` (stereo not drawn) [Entry 1], `CCC1(CC)CC(CCN2CC3CN(c4ccncc4)CC3C2)OC1=O` (stereo not drawn) [Entry 2] is 8.3-fold higher in IC50: 3.5 nM for the first, 29 nM for the second. The first is the more potent here.

Going from `Cc1cnccc1N1CC2CN(CCC3CC4(CCCCC4)C(=O)O3)CC2C1` (stereo not drawn) [Entry 6] to `Cc1cc(N2CC3CN(CCC4CC5(CCCCC5)C(=O)O4)CC3C2)ccn1` (stereo not drawn) [Entry 7], the IC50 rises from 3.9 nM to 11 nM (2.8-fold). The first is the more potent here.

`O=C1OC(CCN2CC3(C2)CN(c2ccccc2)C3)CC12CCCCC2` (stereo not drawn) [Entry 11] and `O=C1OC(CCN2CC3(C2)CN(c2ccncc2)C3)CC12CCCCC2` (stereo not drawn) [Entry 9] are within 1.5-fold of each other in IC50: 30 nM for the first, 34 nM for the second.

`Cc1cc(N2CC3(CN(CCC4CC5(CCCCC5)C(=O)O4)C3)C2)cc(C)n1` (stereo not drawn) [Entry 14] and `Cc1cc(N2CC3(CN(CCC4CC5(CCCCC5)C(=O)O4)C3)C2)ccn1` (stereo not drawn) [Entry 13] are within 1.5-fold of each other in IC50: 1.5 nM for the first, 1.2 nM for the second.

`CCC1(CC)CC(CCN2CC3CN(c4cccc(C#N)c4)CC3C2)OC1=O` (stereo not drawn) [Entry 17] and `CCC1(CC)CC(CCN2CC3CN(c4ccc(C#N)cc4)CC3C2)OC1=O` (stereo not drawn) [Entry 18] are within 1.5-fold of each other in IC50: 7 nM for the first, 9.6 nM for the second.

Going from `CCC1(CC)CC(CCN2CC3CN(c4ccccc4C(C)C)CC3C2)OC1=O` (stereo not drawn) [Entry 4] to `CCC1(CC)CC(CCN2CC3CN(c4ccccc4OC)CC3C2)OC1=O` (stereo not drawn) [Entry 19], the IC50 rises from 2 nM to 6.5 nM (3.2-fold). The first is the more potent here.

`CCC1(CC)CC(CCN2CC3(C2)CN(c2ccncc2)C3)OC1=O` (stereo not drawn) [Entry 10] and `CCC1(CC)CC(CCN2CC3(C2)CN(c2ccccc2)C3)OC1=O` (stereo not drawn) [Entry 15] are within 1.5-fold of each other in IC50: 59 nM for the first, 53 nM for the second.

`CCC1(CC)CC(CCN2CC3CN(c4cccc(OC)c4)CC3C2)OC1=O` (stereo not drawn) [Entry 20] and `CCC1(CC)CC(CCN2CC3CN(c4ccc(OC)cc4)CC3C2)OC1=O` (stereo not drawn) [Entry 21] are within 1.5-fold of each other in IC50: 25 nM for the first, 22 nM for the second.

First: O=C1OC(CCN2CC3CN(c4ccncc4)CC3C2)CC12CCCCC2 (stereo not drawn) [Entry 3]
Second: Cc1cc(N2CC3CN(CCC4CC5(CCCCC5)C(=O)O4)CC3C2)cc(C)n1 (stereo not drawn) [Entry 8]
The IC50 of the first is 1.6-fold higher: 39 nM for the first, 24 nM for the second. The second is the more potent here.

First: CCC1(CC)CC(CCN2CC3CN(c4ccccc4C#N)CC3C2)OC1=O (stereo not drawn) [Entry 16]
Second: CC(C)c1ccccc1N1CC2CN(CCC3CC4(CCCCC4)C(=O)O3)CC2C1 (stereo not drawn) [Entry 5]
The IC50 of the first is 2.8-fold higher: 6.8 nM for the first, 2.4 nM for the second.

With `Cc1cnccc1N1CC2(CN(CCC3CC4(CCCCC4)C(=O)O3)C2)C1` (stereo not drawn) [Entry 12] the IC50 was 3.9 nM.
